In brackets after ≈: the same amount, converted by molar mass.
What was measured:
Lysa solubility = format: physicochemical; conditions: 0.05 M phosphate buffer (pH 6.5); for solubility thermodynamic: phosphate buffer, pH 6.5, aqueous buffer, thermodynamic from solid
Description: Samples were prepared in duplicate from 10 mM DMSO stock solutions. After evaporation of DMSO with a centrifugal vacuum evaporator, the residue was solved in 0.05 M phosphate buffer (pH 6.5), stirred for one hour and shook for two hours. After one night, the solution was filtered using a microtiter filter plate. Then the filtrate and its 1/10 dilution were analyzed by direct UV measurement or by HPLC-UV. […] The results were in μg/mL. In case the percentage of sample measured in solution after evaporation divided by the calculated maximum of sample amount was over 80%, the solubility was reported as higher than this value.

HBV = assay: Anti-HBV activity in vitro, HepG2.2.15 cells, extracellular HBV DNA by qPCR; format: cell-based; conditions: Hepatitis B virus, HepG2.2.15, 120 h, HepG2.2.15 cells; HBV replication inhibited by 50%, extracellular HBV DNA by qPCR; five days after compound treatment; read-out: EC50
Text: HepG2.2.15 and HepDE19 are stably-transfected cell lines containing the HBV genome. Both cell lines are derived from the hepatoblastoma cell line Hep G2 (American Type Culture Collection, ATCC® HB-8065™) by the published procedures described in references: MA Selles et al. Proc. Natl. Acad. Sci. USA 1987, 84, 1005-1009 and H Guo et al. Journal of Virology 2007, 81, 12472-12484, respectively. Both cell lines were maintained in Dulbecco's modified Eagle's medium (DMEM)-F12 medium supplemented with 10% fetal bovine serum, 100 U/mL penicillin, 100 μg/mL streptomycin, and 0.5 mg/mL of G418.
While HepG2.2.15 cells constitutively support HBV replication and production of virus particles, HepDE19 cells are inducible by tetracycline. Addition of 1 μg/mL tetracycline in culture medium suppresses HBV replication in HepDE19 cells, whereas switching to tetracycline-free medium resumes this process.
HepG2.2.15 cells were seeded into 96-well plates (3×10^4 cells in 100 μL media per well) and incubated overnight at 37° C. The test compounds were serially half-log diluted in DMSO, then diluted 100 times in culture media. 100 μL of diluted compounds were added into the plates to reach 0.5% final concentration of DMSO in every well. Five days after compound treatment, culture supernatant was collected for further analysis.
For quantitative PCR detection of extracellular HBV DNA, 100 μL of culture supernatant was collected and processed in MagNA Pure 96 Nucleic Acid Purification System (Roche Applied Science) for viral DNA extraction. The extracted samples were subjected to HBV DNA quantification by qPCR.

Molecule `COC(=O)C1=C(CN2CCN3C(=O)N(c4ccc(C(=O)O)nc4)CC3C2)NC(c2nccs2)=N[C@H]1c1ccc(F)cc1Cl` (mixture of isomers) [Example 95, 5-[7-[[(4R)-4-(2-chloro-4-fluoro-phenyl)-5-methoxycarbonyl-2-thiazol-2-yl-1,4-dihydropyrimidin-6-yl]methyl]-3-oxo-5,6,8,8a-tetrahydro-1H-imidazo[1,5-a]pyrazin-2-yl]pyridine-2-carboxylic acid] has a solubility thermodynamic (Lysa solubility) of 307 µg/mL (≈ 490 µM) and an EC50 (HBV) of 11 nM.

With `COC(=O)C1=C(CN2CCN3C(=O)N(C4CC4)C[C@H]3[C@@H]2C(=O)O)NC(c2nccs2)=N[C@H]1c1ccc(F)c(F)c1C` (single isomer, unassigned) [Example 83A] the “Lysa” value (Lysa solubility) was greater than 740 µg/mL.

For `CCOC(=O)C1=C(CN2CCN3C(=O)N(C(C)C)C[C@H]3[C@@H]2C(=O)O)NC(c2nccs2)=N[C@H]1c1cccc(F)c1Cl` (single isomer, unassigned) [Example 84A], the “Lysa” value (Lysa solubility) was 570 µg/mL and the EC50 (HBV) was 45 nM.

`COC(=O)C1=C(CN2CCN3C(=O)N(C4(CC(=O)O)CC4)CC3C2)NC(c2nccs2)=N[C@H]1c1ccc(F)cc1Cl` (stereo in doubt) [Example 47, 2-[1-[(8aR)-7-[[(4R)-4-(2-chloro-4-fluoro-phenyl)-5-methoxycarbonyl-2-thiazol-2-yl-1,4-dihydropyrimidin-6-yl]methyl]-3-oxo-5,6,8,8a-tetrahydro-1H-imidazo[1,5-a]pyrazin-2-yl]cyclopropyl]acetic acid] gave a solubility thermodynamic (Lysa solubility) greater than 767 µg/mL and an EC50 (HBV) of 51 nM.

For `CCOC(=O)C1=C(CN2CCN3C(=O)N([C@@H]4CCCC4C(=O)O)C[C@@H]3C2)NC(c2nccs2)=N[C@H]1c1cccc(F)c1Cl` (stereo in doubt) [Example 49, (1S,2R)-2-[(8aS)-7-[[(4R)-4-(2-chloro-3-fluoro-phenyl)-5-ethoxycarbonyl-2-thiazol-2-yl-1,4-dihydropyrimidin-6-yl]methyl]-3-oxo-5,6,8,8a-tetrahydro-1H-imidazo[1,5-a]pyrazin-2-yl]cyclopentanecarboxylic acid], the solubility thermodynamic (Lysa solubility) was 312 µg/mL (≈ 494 µM) and the EC50 (HBV) was 8 nM.

`COC(=O)C1=C(CN2CCN3[C@H](CNS3(=O)=O)C2)NC(c2nccs2)=N[C@H]1c1ccc(F)cc1Cl` [Example 17, Methyl (4R)-6-[[(3aS)-1,1-dioxo-2,3,3a,4,6,7-hexahydro-[1,2,5]thiadiazolo[2,3-a]pyrazin-5-yl]methyl]-4-(2-chloro-4-fluoro-phenyl)-2-thiazol-2-yl-1,4-dihydropyrimidine-5-carboxylate] gave an EC50 (HBV) of 39 nM.

`COC(=O)C1=C(CN2CCN3[C@@H](CNS3(=O)=O)C2)NC(c2nccs2)=N[C@H]1c1ccc(F)cc1Cl` [Example 18, Methyl (4R)-6-[[(3aR)-1,1-dioxo-2,3,3a,4,6,7-hexahydro-[1,2,5]thiadiazolo[2,3-a]pyrazin-5-yl]methyl]-4-(2-chloro-4-fluoro-phenyl)-2-thiazol-2-yl-1,4-dihydropyrimidine-5-carboxylate] gave an EC50 (HBV) of 108 nM.

`CCOC(=O)C1=C(CN2CCN3C(=O)N(C(C)(C)C(=O)OC)CC3C2)NC(c2nccs2)=N[C@H]1c1cccc(F)c1Cl` (stereo partly drawn) [Example 23, Ethyl (4R)-4-(2-chloro-3-fluoro-phenyl)-6-[[2-(2-methoxy-1,1-dimethyl-2-oxo-ethyl)-3-oxo-5,6,8,8a-tetrahydro-1H-imidazo[1,5-a]pyrazin-7-yl]methyl]-2-thiazol-2-yl-1,4-dihydropyrimidine-5-carboxylate] gave an EC50 (HBV) of 3 nM.

`COC(=O)C1=C(CN2CCN3C(=O)N(C4(CC(=O)O)CC4)C[C@H]3C2)NC(c2nccs2)=N[C@H]1c1ccc(F)cc1Cl` [Example 46, 2-[1-[(8aR)-7-[[(4R)-4-(2-chloro-4-fluoro-phenyl)-5-methoxycarbonyl-2-thiazol-2-yl-1,4-dihydropyrimidin-6-yl]methyl]-3-oxo-5,6,8,8a-tetrahydro-1H-imidazo[1,5-a]pyrazin-2-yl]cyclopropyl]acetic acid] gave a solubility thermodynamic (Lysa solubility) greater than 744 µg/mL and an EC50 (HBV) of 26 nM.

For `COC(=O)C1=C(CN2CCN3C(=O)N([C@H]4CCC[C@@H]4C(=O)O)C[C@@H]3C2)NC(c2nccs2)=N[C@H]1c1ccc(F)cc1Cl` [Example 52, (1S,2S)-2-[(8aS)-7-[[(4R)-4-(2-chloro-4-fluoro-phenyl)-5-methoxycarbonyl-2-thiazol-2-yl-1,4-dihydropyrimidin-6-yl]methyl]-3-oxo-5,6,8,8a-tetrahydro-1H-imidazo[1,5-a]pyrazin-2-yl]cyclopentanecarboxylic acid], the EC50 (HBV) was 30 nM.

`CCOC(=O)C1=C(CN2CCN3C(=O)N(CCC(=O)O)C[C@@H]3C2)NC(c2nccs2)=N[C@H]1c1cccc(F)c1Cl` [Example 56, (R)-6-[(S)-2-(2-Carboxy-ethyl)-3-oxo-hexahydro-imidazo[1,5-a]pyrazin-7-ylmethyl]-4-(2-chloro-3-fluoro-phenyl)-2-thiazol-2-yl-1,4-dihydro-pyrimidine-5-carboxylic acid ethyl ester] gave a solubility thermodynamic (Lysa solubility) greater than 740 µg/mL and an EC50 (HBV) of 26 nM.

Molecule `CCOC(=O)C1=C(CN2CCN3C(=O)N([C@H](C)CC(=O)O)C[C@@H]3C2)NC(c2nccs2)=N[C@H]1c1cccc(F)c1Cl` [Example 57, (R)-6-[(S)-2-((R)-2-Carboxy-1-methyl-ethyl)-3-oxo-hexahydro-imidazo[1,5-a]pyrazin-7-ylmethyl]-4-(2-chloro-3-fluoro-phenyl)-2-thiazol-2-yl-1,4-dihydro-pyrimidine-5-carboxylic acid ethyl ester] has an EC50 (HBV) of 32 nM.

`CCOC(=O)C1=C(CN2CCN3C(=O)N([C@@H](C)CC(=O)O)C[C@@H]3C2)NC(c2nccs2)=N[C@H]1c1cccc(F)c1Cl` [Example 58, (R)-6-[(S)-2-((S)-2-Carboxy-1-methyl-ethyl)-3-oxo-hexahydro-imidazo[1,5-a]pyrazin-7-ylmethyl]-4-(2-chloro-3-fluoro-phenyl)-2-thiazol-2-yl-1,4-dihydro-pyrimidine-5-carboxylic acid ethyl ester] showed an EC50 (HBV) of 19 nM.

For `COC(=O)C1=C(CN2CCN3C(=O)N(CCCC(C)(C)CO)CC3C2)NC(c2nccs2)=N[C@H]1c1ccc(F)cc1Cl` (stereo partly drawn) [Example 69, Methyl (4R)-4-(2-chloro-4-fluoro-phenyl)-6-[[2-(5-hydroxy-4,4-dimethyl-pentyl)-3-oxo-5,6,8,8a-tetrahydro-1H-imidazo[1,5-a]pyrazin-7-yl]methyl]-2-thiazol-2-yl-1,4-dihydropyrimidine-5-carboxylate], the EC50 (HBV) was 13 nM.

For `CCC(CN1C[C@@H]2CN(CC3=C(C(=O)OC)[C@H](c4ccc(F)cc4Cl)N=C(c4nccs4)N3)CCN2C1=O)C(=O)O` (stereo partly drawn) [Example 75, 2-[[(8aS)-7-[[(4R)-4-(2-chloro-4-fluoro-phenyl)-5-methoxycarbonyl-2-thiazol-2-yl-1,4-dihydropyrimidin-6-yl]methyl]-3-oxo-5,6,8,8a-tetrahydro-1H-imidazo[1,5-a]pyrazin-2-yl]methyl]butanoic acid], the solubility thermodynamic (Lysa solubility) was greater than 774 µg/mL and the EC50 (HBV) was 24 nM.

Work on `CCOC(=O)C1=C(CN2CCN3C(=O)N(CC(F)(F)C(=O)O)C[C@@H]3C2)NC(c2nccs2)=N[C@H]1c1ccc(F)c(F)c1C` [Example 96, (S)-6-[(S)-2-(2-Carboxy-2,2-difluoro-ethyl)-3-oxo-hexahydro-imidazo[1,5-a]pyrazin-7-ylmethyl]-4-(3,4-difluoro-2-methyl-phenyl)-2-thiazol-2-yl-1,4-dihydro-pyrimidine-5-carboxylic acid ethyl ester] yielded an EC50 (HBV) of 150 nM.

— patent US9233978B2, “6-fused heteroaryldihydropyrimidines for the treatment and prophylaxis of hepatitis B virus infection” (Hoffmann-La Roche Inc., priority 2014, dated 2016)
